According to US10954269B2, “Anti-inflammatory tripeptides” (Dr. August Wolff Gmbh & Co. KG Arzneimittel, priority 2013, dated 2021):
[ ]: non-standard residue; d: D form. Aib = CC(C)(N)C(=O)O

Assays:
C57BL/6 mice = assay: DSS-induced colitis in mice; format: in vivo; details: i.p.
Method: Colitis is induced by treatment of C57BL/6 mice with 2.5% dextran sulfate (DSS) in the drinking water for 7 days. Mice are treated with the test item. Weight is monitored daily. At day 8 mice are scarified. A haemocult test is performed. The size of the colon is measured. Colitis is determined using a scoring system in H&E stains. mRNA expression in colon samples is analyzed by RT-qPCR.

primary human T cells = assay: Gene expression of pro-inflammatory cytokines (RT-qPCR) in primary human T cells; format: cell-based; details: RT-qPCR
Text: (§1) Cells were activated with PMA/Ionomycin and treated with PBS, α-MSH, K(D)PT and Examples 3, 8 and 9, respectively, at a concentration of 10^−9 M. Values are normalized to β-actin and are shown relative to the gene expression in PBS-stimulated cells.
(§2) Primary T-cells were isolated from peripheral blood from healthy volunteers and from secondary lymphatic organs from naïve C57BL/6 mice, respectively. The cells were stimulated with phorbol-12-myristate-13-acetate (PMA)/Ionomycin and interferon-gamma (IFN-γ), respectively, for 48 h to activate the cells. The activated cells release pro-inflammatory cytokines. In parallel a human (HaCaT) keratinocyte cell line was activated with PMA/Ionomycin and IFN-γ, respectively, too. […] At the same time release of anti-inflammatory IL-10 was inhibited. Two days after addition of PMA/Ionomycin and IFN-γ, respectively, the induction of IL-1 secretion was determined in the supernatant for proving that the cells are activated. […] The anti-inflammatory properties of the tripeptides were determined 48 h and 72 h following stimulation. A 13-plex-system based FACS analysis was used for showing the reduced secretion of pro-inflammatory cytokines in the supernatant. Data for IL-1, IL-2, IL-6, IL-12p70 IL-17, IFN-γ and TNF-α are considered to be most relevant. Thus, analysis of the anti-inflammatory properties of the tripeptides is preferably based on the results obtained for these analytes. […] Using this method the gene expression of pro-inflammatory markers like IL-6, IL-17, IFN-γ and TNF-α was determined.
(§3) In a third experiment murine and human T cells and HaCaT cells were stimulated with PMA/Ionomycin and treated with Examples 14, 15, 16 and 17 at 10^−7 M, 10^−9 M and 10^−11 M. Cytokine concentrations (IFN-γ, IL-17 and IL-10 for T cells and IFN-γ for HaCat) were assessed in the supernatants using the Luminex technology. Expression of genes coding for Il-1β, IL-6 and TNF-α was determined. […] Moreover, concentrations of pro-inflammatory cytokines IFN-γ and IL-17 was reduced in the supernatants whereas the concentration of anti-inflammatory cytokine IL-10 was increased.

primary murine T cells = assay: Gene expression of pro-inflammatory cytokines (RT-qPCR) in primary murine T cells; format: cell-based, C57BL/6 mice; details: RT-qPCR
Text: as §1, §2, §3

## H-Phe-Pro-[Aib]-OH [Example 13]
C57BL/6 mice
  colon size: partly normalized
  disease in histology: amelioration
C57BL/6 mice; compared to vehicle control
  mRNA expression of LY-6G, MPO, IFN-γ, IL-6 and TNF-α (colon): reduced
  weight loss: decreased
Primary human T cells
  mRNA expression of IL-6, IL-17, IFN-γ and TNF-α: reduced expression
Primary murine T cells
  mRNA expression of IL-6, IL-17, IFN-γ and TNF-α: reduced expression
